Reference: US20160251403A1, “PEPTIDE COMBINATIONS AND USES THEREOF IN TREATING DUST MITE ALLERGY” (ALK-ABELLO A/S, priority 2013, published 2016)
No end group written: not given here.

What was measured:
DPA10103-DPB10201 = target: T1, DPA10103-DPB10201 (Homo sapiens, UniProt P04440+P20036, A65V/A84D/A85E/K98E); test: Competitive MHC class II binding assay, DPA10103-DPB10201
T1 sequence (P20036 29-260): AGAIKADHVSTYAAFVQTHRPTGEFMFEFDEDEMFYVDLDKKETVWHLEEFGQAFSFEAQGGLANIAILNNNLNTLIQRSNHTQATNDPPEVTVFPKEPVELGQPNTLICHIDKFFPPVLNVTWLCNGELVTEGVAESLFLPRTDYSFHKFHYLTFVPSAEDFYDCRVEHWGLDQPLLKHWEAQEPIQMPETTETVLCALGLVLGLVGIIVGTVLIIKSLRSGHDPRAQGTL
T1 sequence (P04440 30-258 A65V/A84D/A85E/K98E): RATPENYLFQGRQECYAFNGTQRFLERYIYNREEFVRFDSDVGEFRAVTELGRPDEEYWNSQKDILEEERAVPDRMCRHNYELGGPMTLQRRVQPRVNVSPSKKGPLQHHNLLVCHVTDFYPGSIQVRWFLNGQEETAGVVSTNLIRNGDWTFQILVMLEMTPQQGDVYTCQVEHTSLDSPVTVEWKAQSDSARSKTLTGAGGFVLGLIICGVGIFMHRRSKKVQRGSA

DRB1_1302 = DRB1_1302 (Homo sapiens, UniProt P01903+P01911, A100E/A169T/K41T/L162R/M171V/P40S/Q125H/Q178H/Q39Y/Q99D/R42S/S66N/T262R/V115G/W38E/Y61H); test: Competitive MHC class II binding assay, DRB1_1302;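 note: purified HLA class II protein incubated two to four days with a radiolabeled reference binder and test peptide at six concentrations over a 100,000-fold range, complex-bound radioactivity counted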
DRB1_0901 = DRB1_0901 (Homo sapiens, UniProt P01903+P01911, A100R/A103E/D57H/D86V/F55Y/F60I/F76Y/I96F/K127E/L162R/M171V/P40D/Q125H/Q99R/R33Q/R42F/S133A/S66N/T210M/V115G/W38K/Y107V/Y59G/Y89S); test: Competitive MHC class II binding assay, DRB1_0901;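 note: displacement of a radiolabeled probe peptide from purified HLA class II protein, bound counts read after two to four days incubation, six concentrations spanning 100,000-fold, unlabeled probe as reference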
DRB1_0405 = DRB1_0405 (Homo sapiens, UniProt P01903+P01911, A100R/A169T/D86S/F76Y/I96L/K127E/L162R/M171V/N62H/P40V/Q125Y/R42H/S133A/S149N/S66Y/V115G/V209L/W38E); test: Competitive MHC class II binding assay, DRB1_0405
DRB1_0101 = DRB1_0101 (Homo sapiens, UniProt P01903+P01911, A100R/D57E/F55L/F60I/F76Y/I96L/L162R/M171V/P40L/Q125E/R42F/V115G/Y59C); test: Competitive MHC class II binding assay, DRB1_0101;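 note: competition against a radiolabeled probe peptide (0.1–1 nM) for purified HLA class II protein over 2–4 days, bound counts read after antibody capture, six competitor levels across 100,000-fold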
DRB4_0101 = DRB4_0101 (Homo sapiens, UniProt P01903+P13762, G164S); test: Competitive MHC class II binding assay, DRB4_0101
DRB3_0202 = DRB3_0202 (Homo sapiens, UniProt P01903+P79483, A212P/D57E/F66Y/L67A/R103Q/R218S/R40L/S89Y/T80R/V86D/Y55F/Y59H); test: Competitive MHC class II binding assay, DRB3_0202
DQA10101-DQB10501 = DQA10101-DQB10501 (Homo sapiens, UniProt P01909+P01920, A157S/A45G/A70V/C70R/D89V/E106S/E118A/E183D/E77G/F83G/G63E/H151Q/H199R/H252R/H253Q/I129T/I235V/I88M/INS77G/K197Q/L107V/L117V/L119Y/L178F/L71W/L74F/L85Q/L91A/L98M/M46L/N214S/P87R/Q116E/Q256R/Q57E/Q76K/R102G/R240Q/R75S/R78G/S102Y/S185I/S41F/S97I/T103A/T109R/T121G/T122I/T172A/T86R/V148I/V68A/V73E/Y34C/Y58G/Y62H); test: Competitive MHC class II binding assay, DQA10101-DQB10501; settings: positive binding at cutoff 1000 nM; read-out: HLA-DQA10101-DQB10501
DQA10501-DQB10201 = DQA10501-DQB10201 (Homo sapiens, UniProt P01909+P01920, A45G/A70V/D89A/E106A/E77G/E98D/H199R/L107V/N214S/P84L/P87L/T103K/T109R/T172A/T60S/V78E/V99I/Y58L/Y62S/Y69I/Y79F); test: Competitive MHC class II binding assay, DQA10501-DQB10201
DRB1_0802 = DRB1_0802 (Homo sapiens, UniProt P01903+P01911, A100R/A103L/A169T/F76Y/H45Y/I96F/K41T/L162R/M171V/P40S/Q125H/Q178H/Q39Y/Q99D/R218S/R42G/S66Y/V115G/W38E); test: Competitive MHC class II binding assay, DRB1_0802
DPA10103-DPB10301 = target: T2, DPA10103-DPB10301 (Homo sapiens, UniProt P04440+P20036, A65V/A84D/A85E/E86D/F38Y/G113D/G114E/G40L/I94L/L37V/M105V/M116V/P115A/R125K/T199I); test: Competitive MHC class II binding assay, DPA10103-DPB10301
T2 sequence (P20036 29-260): T1 sequence (P20036 29-260)
T2 sequence (P04440 30-258 L37V/F38Y/G40L/A65V/A84D/A85E/E86D/I94L/M105V/G113D/G114E/P115A/M116V/R125K/T199I/V234M): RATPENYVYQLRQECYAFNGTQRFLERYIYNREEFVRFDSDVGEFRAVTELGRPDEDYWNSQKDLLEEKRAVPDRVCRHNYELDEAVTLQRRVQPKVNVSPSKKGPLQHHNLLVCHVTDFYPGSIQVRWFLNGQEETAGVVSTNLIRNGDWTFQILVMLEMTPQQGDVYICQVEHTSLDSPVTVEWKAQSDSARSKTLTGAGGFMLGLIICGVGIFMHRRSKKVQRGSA

DRB5_0101 = DRB5_0101 (Homo sapiens, UniProt P01903+Q30154); test: Competitive MHC class II binding assay, DRB5_0101
DRB1_0301 = DRB1_0301 (Homo sapiens, UniProt P01903+P01911, A100K/A102G/A103R/A169T/F55Y/I96L/K41T/L162R/M171V/P40S/Q125H/Q178H/Q39Y/R42S/S66N/T106N/T262R/W38E/Y61H); test: Competitive MHC class II binding assay, DRB1_0301
DRB1_0401 = DRB1_0401 (Homo sapiens, UniProt P01903+P01911, A100K/A169T/F76Y/I96L/K127E/L162R/M171V/N62H/P40V/Q125Y/R42H/S133A/S149N/S66Y/V115G/V209L/W38E); test: Competitive MHC class II binding assay, DRB1_0401
DRB1_1101 = DRB1_1101 (Homo sapiens, UniProt P01903+P01911, A100R/A169T/A87E/I96F/K41T/L162R/M171V/P40S/Q125H/Q178H/Q39Y/Q99D/R42S/S66Y/T262R/V115G/W38E); test: Competitive MHC class II binding assay, DRB1_1101
DRB1_1501 = DRB1_1501 (Homo sapiens, UniProt P01903+P01911); test: Competitive MHC class II binding assay, DRB1_1501
DRB1_0701 = DRB1_0701 (Homo sapiens, UniProt P01903+P01911, A100R/A102G/A103Q/D57E/D86V/E43K/F76Y/K127E/L162R/M171V/P40G/Q125H/Q99D/R33Q/R42Y/R54Q/S133A/S66F/T210M/V115G/Y107V/Y59L/Y89S); test: Competitive MHC class II binding assay, DRB1_0701;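 note: displacement of a radiolabeled reference peptide from purified HLA class II protein, with complex-bound radioactivity counted after 2–4 days of incubation and six concentrations spanning a 100,000-fold range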
DRB1_1201 = DRB1_1201 (Homo sapiens, UniProt P01903+P01911, A100R/A169T/D57E/D86V/F55L/H45Y/K41T/L162R/M171V/P40S/Q125H/Q178H/Q39Y/Q99D/R42G/S66L/T262R/V114A/V67L/W38E/Y59H/Y61H/Y89S); test: Competitive MHC class II binding assay, DRB1_1201
[1] = Solubility of peptides in aqueous solutions at different pH (visual inspection, OD, HPLC); format: physicochemical; settings: Table 11a; evaluated by visual inspection
Excerpt: This example describes modifications of parent peptides to improve the aqueous solubility, in particular to increase the solubility in an aqueous solution having pH in a physiologically acceptable range, e.g. from 6 to 8. Solubility is closely related to the ratio between hydrophilic and hydrophobic amino acid residues and the net charge state of the peptide. Peptides have zero net charge at pH=pI, and would be expected to show the lowest solubility at this pH. […] The solubility of these peptides was increased at pH values outside the physiological range (data not shown).
Peptides were tested for their ability to dissolve in aqueous solutions at different pH values. In short, each of the peptides were dissolved in water (pH about 5-6), hydrochloride solution at pH 2 (10 mM HCl), acetate buffer with pH 5 (20 mM acetate and 140 mM sodium chloride), phosphate buffer with pH 7 (20 mM phosphate and 140 mM sodium chloride) or bistrispropate buffer with pH 9 (20 mM bitrispropane and 140 mM sodium chloride, respectively, to produce a final molar concentration of the peptide of about 0.25 mM or 1 mM. Optionally, about 20% DMSO may be part of the solution. For comparison reasons, peptides were also dissolved in acetonitrile or DMSO. The solutions were inspected visually before and after centrifugation for turbidity, presence of particles/aggregates. In addition, presence of turbidity/particles/aggregates were detected by optical density (OD), but might also be detected by size-exclusion chromatography. Sub-visual particles may also be detected by dynamic light scattering (DLS) analysis. The solubility and stability of each peptide were also investigated using HPLC, e.g. RP-HPLC. For example, each of the solutions were injected onto the HPLC and the peak height or peak area of each of the peptides were compared to the corresponding peptide of a chromatogram of peptides dissolved in acetonitrile or DMSO—as peptides were assumed to be fully dissolved and stable in these solvents.

DRB3_0101 = DRB3_0101 (Homo sapiens, UniProt P01903+P79483); test: Competitive MHC class II binding assay, DRB3_0101

| Sequence | IC50 (DPA10103-DPB10201) [µM] | IC50 (DRB1_1302) [µM] | IC50 (DRB1_0901) [µM] | IC50 (DRB1_0405) [µM] | IC50 (DRB1_0101) [µM] | IC50 (DRB4_0101) [µM] | IC50 (DRB3_0202) [µM] | IC50 (DQA10101-DQB10501) [µM] | IC50 (DQA10501-DQB10201) [µM] | IC50 (DRB1_0802) [µM] | IC50 (DPA10103-DPB10301) [µM] | IC50 (DRB5_0101) [µM] | IC50 (DRB1_0301) [µM] | IC50 (DRB1_0401) [µM] | IC50 (DRB1_1101) [µM] | IC50 (DRB1_1501) [µM] | IC50 (DRB1_0701) [µM] | IC50 (DRB1_1201) [µM] | Solubility at pH 7 [1] | IC50 (DRB3_0101) [µM] |
| --- | --- | --- | --- | --- | --- | --- | --- | --- | --- | --- | --- | --- | --- | --- | --- | --- | --- | --- | --- | --- |
| HRGKPFQLEAVFEANQNTKT [pep-091] | < 1 | < 1 | < 1 | < 1 | < 1 | < 1 | < 1 | < 1 | < 1 | < 1 | – | – | – | – | – | – | – | – | – | – |
| QESYYRYVAREQSSRRPNAQ [pep-050] | – | – | – | – | – | – | – | – | – | – | < 1 | < 1 | < 1 | < 1 | < 1 | – | – | – | – | – |
| ATESAYLAYRNTSLD [pep-022] | – | – | < 1 | < 1 | < 1 | – | – | < 1 | – | < 1 | – | – | – | < 1 | – | < 1 | < 1 | – | – | – |
| DLRQMRTVTPIRMQGGSGS [HDM203B, reference compound] | < 1 | < 1 | < 1 | < 1 | < 1 | < 1 | – | – | – | < 1 | < 1 | < 1 | < 1 | < 1 | < 1 | < 1 | < 1 | < 1 | – | – |
| KGQQYDIKYTWNVPKIA [pep-126] | – | < 1 | < 1 | – | < 1 | – | < 1 | < 1 | – | < 1 | < 1 | < 1 | – | – | – | – | < 1 | – | Clear | – |
| KSENVVVTVKLVGDNGVLAS [pep-109] | – | < 1 | – | – | – | < 1 | – | – | – | < 1 | – | – | < 1 | < 1 | < 1 | – | – | – | – | < 1 |
| VQESYYRYVAREQSSRRPNAQ [pep-124] | < 1 | – | – | – | – | – | – | – | – | < 1 | < 1 | < 1 | – | – | < 1 | – | < 1 | – | – | – |
| QESYYRYVAREQSSRR [pep-122] | – | – | < 1 | < 1 | < 1 | – | < 1 | – | – | < 1 | < 1 | < 1 | – | < 1 | < 1 | – | < 1 | < 1 | – | – |
